{"source": "paper PMC7180948", "about": "“New Insights into 4-Anilinoquinazolines as Inhibitors of Cardiac Troponin I–Interacting Kinase (TNNi3K)” (Molecules, 2020)", "assay_in_all_cases": "biochemical", "parameters_in_all_cases": "KINOMEscan competition binding panel (Eurofins DiscoverX), single concentration, % inhibition", "settings_in_all_cases": "read-out: 7 at 1 µM % inhibition", "key": {"[1]": {"biological_target": "T1, ABL1(H396P)-phosphorylated (Homo sapiens, UniProt P00519, H396P)", "T1 construct": "phosphorylated", "procedure,_shortened": "(§1)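 Selectivity profile from a KINOMEscan run against >400 human kinases; test concentration 1 µM.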"}, "BMPR2": {"biological_target": "BMPR2 (Homo sapiens, UniProt Q13873)", "sequence (Q13873 whole entry)": "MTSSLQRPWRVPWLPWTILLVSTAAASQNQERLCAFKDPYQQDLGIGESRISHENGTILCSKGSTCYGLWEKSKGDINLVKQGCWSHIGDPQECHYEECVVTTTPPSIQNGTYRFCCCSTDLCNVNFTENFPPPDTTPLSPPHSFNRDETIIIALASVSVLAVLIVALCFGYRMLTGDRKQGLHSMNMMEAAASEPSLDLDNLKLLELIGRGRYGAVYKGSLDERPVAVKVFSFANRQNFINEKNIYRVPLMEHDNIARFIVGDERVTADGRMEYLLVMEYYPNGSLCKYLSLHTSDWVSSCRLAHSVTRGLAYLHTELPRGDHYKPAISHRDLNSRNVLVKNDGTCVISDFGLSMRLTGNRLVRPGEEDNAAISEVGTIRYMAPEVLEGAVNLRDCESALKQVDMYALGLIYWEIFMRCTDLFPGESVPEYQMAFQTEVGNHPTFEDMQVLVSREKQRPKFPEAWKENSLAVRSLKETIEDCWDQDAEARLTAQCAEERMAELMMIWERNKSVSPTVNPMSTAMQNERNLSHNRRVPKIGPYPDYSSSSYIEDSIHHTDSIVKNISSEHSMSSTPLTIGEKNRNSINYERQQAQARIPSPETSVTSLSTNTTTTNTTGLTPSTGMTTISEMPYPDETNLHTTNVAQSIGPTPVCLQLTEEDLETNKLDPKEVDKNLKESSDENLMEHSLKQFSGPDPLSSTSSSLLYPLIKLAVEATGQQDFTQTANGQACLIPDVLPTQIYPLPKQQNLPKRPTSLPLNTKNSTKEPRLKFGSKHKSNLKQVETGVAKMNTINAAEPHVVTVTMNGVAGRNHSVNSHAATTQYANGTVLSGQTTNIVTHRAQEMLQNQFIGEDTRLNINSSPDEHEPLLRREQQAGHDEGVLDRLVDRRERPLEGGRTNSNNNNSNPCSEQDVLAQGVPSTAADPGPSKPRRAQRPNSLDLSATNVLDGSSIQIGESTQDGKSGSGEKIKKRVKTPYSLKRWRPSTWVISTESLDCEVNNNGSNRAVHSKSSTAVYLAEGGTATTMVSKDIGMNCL", "procedure,_shortened": "as §1"}, "BRAF(V600E)": {"biological_target": "BRAF(V600E) (Homo sapiens, UniProt P15056, V600E)", "procedure,_shortened": "as §1"}, "CAMK1": {"biological_target": "CAMK1 (Homo sapiens, UniProt Q14012)", "sequence (Q14012 whole entry)": "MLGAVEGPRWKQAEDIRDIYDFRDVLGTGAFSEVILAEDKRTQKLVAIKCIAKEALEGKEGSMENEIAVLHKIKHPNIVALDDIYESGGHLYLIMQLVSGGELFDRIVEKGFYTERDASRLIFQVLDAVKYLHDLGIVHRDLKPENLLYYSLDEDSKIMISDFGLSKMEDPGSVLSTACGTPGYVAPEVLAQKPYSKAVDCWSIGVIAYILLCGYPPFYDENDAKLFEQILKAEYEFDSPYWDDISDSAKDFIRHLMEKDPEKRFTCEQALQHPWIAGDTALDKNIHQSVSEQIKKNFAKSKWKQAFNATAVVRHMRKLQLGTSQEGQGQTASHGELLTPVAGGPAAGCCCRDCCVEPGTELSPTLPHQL", "procedure,_shortened": "as §1"}, "CDKL3": {"biological_target": "CDKL3 (Homo sapiens, UniProt Q8IVW4)", "sequence (Q8IVW4 whole entry)": "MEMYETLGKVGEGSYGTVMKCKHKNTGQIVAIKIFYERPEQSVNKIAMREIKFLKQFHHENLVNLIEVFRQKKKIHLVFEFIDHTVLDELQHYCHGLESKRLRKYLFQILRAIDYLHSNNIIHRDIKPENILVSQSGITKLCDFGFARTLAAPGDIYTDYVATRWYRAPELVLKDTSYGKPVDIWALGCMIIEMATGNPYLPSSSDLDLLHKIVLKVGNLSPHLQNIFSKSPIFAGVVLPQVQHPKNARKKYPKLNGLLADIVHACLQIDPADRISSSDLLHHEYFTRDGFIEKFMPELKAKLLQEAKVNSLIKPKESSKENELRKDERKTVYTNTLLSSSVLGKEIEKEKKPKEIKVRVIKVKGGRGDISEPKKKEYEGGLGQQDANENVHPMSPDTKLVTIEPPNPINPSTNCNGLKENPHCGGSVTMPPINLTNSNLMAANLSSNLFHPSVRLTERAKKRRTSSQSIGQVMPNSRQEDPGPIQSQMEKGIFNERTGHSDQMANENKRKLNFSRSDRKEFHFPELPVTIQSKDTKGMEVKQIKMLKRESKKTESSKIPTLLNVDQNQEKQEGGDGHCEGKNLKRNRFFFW", "procedure,_shortened": "as §1"}, "DAPK1": {"biological_target": "DAPK1 (Homo sapiens, UniProt P53355)", "procedure,_shortened": "as §1"}, "DCAMKL1": {"biological_target": "T2, DCAMKL1 (Homo sapiens, UniProt O15075)", "T2 construct": "gene DCLK1", "procedure,_shortened": "as §1"}, "EPHA1": {"biological_target": "EPHA1 (Homo sapiens, UniProt P21709)", "procedure,_shortened": "as §1"}, "EPHA8": {"biological_target": "EPHA8 (Homo sapiens, UniProt P29322)", "sequence (P29322 whole entry)": "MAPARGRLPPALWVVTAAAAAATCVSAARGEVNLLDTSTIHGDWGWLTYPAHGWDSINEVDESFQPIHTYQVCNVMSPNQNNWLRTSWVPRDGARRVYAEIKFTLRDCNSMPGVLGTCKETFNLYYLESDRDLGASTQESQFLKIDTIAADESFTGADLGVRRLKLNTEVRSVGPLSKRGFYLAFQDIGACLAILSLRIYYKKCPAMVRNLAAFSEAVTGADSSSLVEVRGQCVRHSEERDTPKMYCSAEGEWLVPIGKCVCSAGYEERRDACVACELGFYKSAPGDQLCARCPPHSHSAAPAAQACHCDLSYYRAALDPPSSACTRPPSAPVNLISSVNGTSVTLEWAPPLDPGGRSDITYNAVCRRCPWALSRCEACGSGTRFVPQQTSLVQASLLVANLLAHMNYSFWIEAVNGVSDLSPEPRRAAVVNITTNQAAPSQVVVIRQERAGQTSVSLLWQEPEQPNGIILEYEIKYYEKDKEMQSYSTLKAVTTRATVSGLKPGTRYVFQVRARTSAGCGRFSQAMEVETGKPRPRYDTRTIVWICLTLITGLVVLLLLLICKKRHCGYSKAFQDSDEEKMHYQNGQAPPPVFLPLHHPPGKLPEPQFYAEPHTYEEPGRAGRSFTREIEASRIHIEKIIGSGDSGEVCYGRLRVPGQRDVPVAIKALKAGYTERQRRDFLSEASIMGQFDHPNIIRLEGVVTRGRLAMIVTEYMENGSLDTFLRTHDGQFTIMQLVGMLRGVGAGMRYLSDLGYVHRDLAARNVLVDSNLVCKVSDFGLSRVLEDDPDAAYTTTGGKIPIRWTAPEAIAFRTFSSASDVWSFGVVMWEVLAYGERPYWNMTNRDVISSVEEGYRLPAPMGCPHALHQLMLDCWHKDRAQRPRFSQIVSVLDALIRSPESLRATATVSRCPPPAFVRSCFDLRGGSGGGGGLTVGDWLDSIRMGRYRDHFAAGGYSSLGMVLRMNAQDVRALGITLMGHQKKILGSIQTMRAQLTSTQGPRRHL", "procedure,_shortened": "as §1"}, "GRK2": {"biological_target": "GRK2 (Homo sapiens, UniProt P25098)", "sequence (P25098 whole entry)": "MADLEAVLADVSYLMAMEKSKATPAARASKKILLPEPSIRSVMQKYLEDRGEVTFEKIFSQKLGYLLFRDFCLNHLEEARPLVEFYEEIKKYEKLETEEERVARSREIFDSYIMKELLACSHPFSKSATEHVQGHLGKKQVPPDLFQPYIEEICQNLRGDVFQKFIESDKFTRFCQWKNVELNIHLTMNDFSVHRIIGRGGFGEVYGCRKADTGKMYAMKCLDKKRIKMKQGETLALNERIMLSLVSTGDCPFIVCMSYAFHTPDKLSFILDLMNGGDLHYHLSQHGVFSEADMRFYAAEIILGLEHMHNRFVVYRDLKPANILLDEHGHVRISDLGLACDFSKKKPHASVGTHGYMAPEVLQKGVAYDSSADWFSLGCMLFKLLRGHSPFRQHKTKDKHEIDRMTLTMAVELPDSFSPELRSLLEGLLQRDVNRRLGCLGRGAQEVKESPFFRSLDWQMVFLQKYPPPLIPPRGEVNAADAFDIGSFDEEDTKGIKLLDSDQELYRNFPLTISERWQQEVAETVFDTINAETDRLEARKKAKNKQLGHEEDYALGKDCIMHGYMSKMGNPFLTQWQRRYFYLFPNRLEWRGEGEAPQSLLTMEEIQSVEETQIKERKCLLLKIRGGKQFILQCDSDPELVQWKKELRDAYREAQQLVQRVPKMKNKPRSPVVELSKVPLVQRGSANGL", "procedure,_shortened": "as §1"}, "HCK": {"biological_target": "HCK (Homo sapiens, UniProt P08631)", "procedure,_shortened": "as §1"}, "HIPK2": {"biological_target": "HIPK2 (Homo sapiens, UniProt Q9H2X6)", "procedure,_shortened": "as §1"}, "INSR": {"biological_target": "INSR (Homo sapiens, UniProt P06213)", "procedure,_shortened": "as §1"}, "JNK1": {"biological_target": "T3, JNK1 (Homo sapiens, UniProt P45983)", "T3 construct": "gene MAPK8", "T3 sequence (P45983 whole entry)": "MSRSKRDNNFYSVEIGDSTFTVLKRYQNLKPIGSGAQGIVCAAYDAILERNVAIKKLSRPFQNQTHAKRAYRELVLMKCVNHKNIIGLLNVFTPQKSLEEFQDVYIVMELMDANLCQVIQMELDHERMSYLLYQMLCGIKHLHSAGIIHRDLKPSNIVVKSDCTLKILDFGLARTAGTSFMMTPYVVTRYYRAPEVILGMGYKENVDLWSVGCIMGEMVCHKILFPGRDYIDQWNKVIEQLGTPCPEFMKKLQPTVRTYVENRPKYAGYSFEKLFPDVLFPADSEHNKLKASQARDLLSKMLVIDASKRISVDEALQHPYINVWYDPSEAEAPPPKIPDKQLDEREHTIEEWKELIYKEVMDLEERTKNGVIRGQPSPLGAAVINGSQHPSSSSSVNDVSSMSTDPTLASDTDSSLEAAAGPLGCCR", "procedure,_shortened": "as §1"}, "MAP4K3": {"biological_target": "MAP4K3 (Homo sapiens, UniProt Q8IVH8)", "sequence (Q8IVH8 whole entry)": "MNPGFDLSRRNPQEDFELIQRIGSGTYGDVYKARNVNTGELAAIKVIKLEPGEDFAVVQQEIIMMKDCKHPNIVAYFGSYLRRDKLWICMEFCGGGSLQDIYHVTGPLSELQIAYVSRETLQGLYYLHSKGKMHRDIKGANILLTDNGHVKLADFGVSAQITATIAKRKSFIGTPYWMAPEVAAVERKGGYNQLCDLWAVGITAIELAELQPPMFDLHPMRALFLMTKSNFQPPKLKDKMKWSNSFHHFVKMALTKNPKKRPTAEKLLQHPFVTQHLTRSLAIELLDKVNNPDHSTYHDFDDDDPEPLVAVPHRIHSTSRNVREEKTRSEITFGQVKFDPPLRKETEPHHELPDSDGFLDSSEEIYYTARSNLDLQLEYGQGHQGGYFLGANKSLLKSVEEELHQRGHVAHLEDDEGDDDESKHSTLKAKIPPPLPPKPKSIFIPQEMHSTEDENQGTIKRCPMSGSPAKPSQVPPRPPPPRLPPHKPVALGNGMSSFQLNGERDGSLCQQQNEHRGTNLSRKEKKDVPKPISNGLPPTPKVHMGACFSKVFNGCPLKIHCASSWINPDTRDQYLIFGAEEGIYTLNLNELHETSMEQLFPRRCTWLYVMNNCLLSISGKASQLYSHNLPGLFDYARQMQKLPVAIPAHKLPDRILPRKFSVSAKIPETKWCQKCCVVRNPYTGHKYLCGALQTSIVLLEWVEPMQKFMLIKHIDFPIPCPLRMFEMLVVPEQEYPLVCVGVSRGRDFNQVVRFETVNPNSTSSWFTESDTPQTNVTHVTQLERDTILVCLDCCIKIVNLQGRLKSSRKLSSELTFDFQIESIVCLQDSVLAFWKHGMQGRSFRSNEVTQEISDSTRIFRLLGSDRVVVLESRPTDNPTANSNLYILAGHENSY", "procedure,_shortened": "as §1"}, "MARK1": {"biological_target": "MARK1 (Homo sapiens, UniProt Q9P0L2)", "procedure,_shortened": "as §1"}, "PAK4": {"biological_target": "PAK4 (Homo sapiens, UniProt O96013)", "procedure,_shortened": "as §1"}, "PIM2": {"biological_target": "PIM2 (Homo sapiens, UniProt Q9P1W9)", "procedure,_shortened": "as §1"}, "PRKD2": {"biological_target": "PRKD2 (Homo sapiens, UniProt Q9BZL6)", "procedure,_shortened": "as §1"}, "[2]": {"biological_target": "T4, RSK1(Kin.Dom.2-C-terminal) (Homo sapiens, UniProt Q15418)", "T4 construct": "gene RPS6KA1; Kin.Dom.2-C-terminal", "procedure,_shortened": "as §1"}, "[3]": {"biological_target": "T5, RSK3(Kin.Dom.1-N-terminal) (Homo sapiens, UniProt Q15349)", "T5 construct": "gene RPS6KA2; Kin.Dom.1-N-terminal", "procedure,_shortened": "as §1"}, "YANK1": {"biological_target": "T6, YANK1 (Homo sapiens, UniProt Q8WU08)", "T6 construct": "gene STK32A", "procedure,_shortened": "as §1"}, "YSK4": {"biological_target": "T7, YSK4 (Homo sapiens, UniProt Q56UN5)", "T7 construct": "gene MAP3K19", "procedure,_shortened": "as §1"}, "p38-beta": {"biological_target": "T8, p38-beta (Homo sapiens, UniProt Q15759)", "T8 construct": "gene MAPK11", "procedure,_shortened": "as §1"}}}
{"compound": "CNS(=O)(=O)c1ccc(N(C)C)c(Nc2ncnc3cc(OC)c(OC)cc23)c1", "note": "[compound 7, 3-((6,7-dimethoxyquinazolin-4-yl)amino)-4-(dimethylamino)-N-methylbenzenesulfonamide]", "values": [{"measurement": "inhibition at 1 µM", "setting": "[1]", "value": 34, "unit": "%"}, {"measurement": "inhibition at 1 µM", "setting": "BMPR2", "value": 0, "unit": "%"}, {"measurement": "inhibition at 1 µM", "setting": "BRAF(V600E)", "value": 83, "unit": "%"}, {"measurement": "inhibition at 1 µM", "setting": "CAMK1", "value": 0, "unit": "%"}, {"measurement": "inhibition at 1 µM", "setting": "CDKL3", "value": 0, "unit": "%"}, {"measurement": "inhibition at 1 µM", "setting": "DAPK1", "value": 0, "unit": "%"}, {"measurement": "inhibition at 1 µM", "setting": "DCAMKL1", "value": 12, "unit": "%"}, {"measurement": "inhibition at 1 µM", "setting": "EPHA1", "value": 0, "unit": "%"}, {"measurement": "inhibition at 1 µM", "setting": "EPHA8", "value": 0, "unit": "%"}, {"measurement": "inhibition at 1 µM", "setting": "GRK2", "value": 65, "unit": "%"}, {"measurement": "inhibition at 1 µM", "setting": "HCK", "value": 11, "unit": "%"}, {"measurement": "inhibition at 1 µM", "setting": "HIPK2", "value": 0, "unit": "%"}, {"measurement": "inhibition at 1 µM", "setting": "INSR", "value": 17, "unit": "%"}, {"measurement": "inhibition at 1 µM", "setting": "JNK1", "value": 8, "unit": "%"}, {"measurement": "inhibition at 1 µM", "setting": "MAP4K3", "value": 0, "unit": "%"}, {"measurement": "inhibition at 1 µM", "setting": "MARK1", "value": 7, "unit": "%"}, {"measurement": "inhibition at 1 µM", "setting": "PAK4", "value": 0, "unit": "%"}, {"measurement": "inhibition at 1 µM", "setting": "PIM2", "value": 0, "unit": "%"}, {"measurement": "inhibition at 1 µM", "setting": "PRKD2", "value": 8, "unit": "%"}, {"measurement": "inhibition at 1 µM", "setting": "[2]", "value": 0, "unit": "%"}, {"measurement": "inhibition at 1 µM", "setting": "[3]", "value": 0, "unit": "%"}, {"measurement": "inhibition at 1 µM", "setting": "YANK1", "value": 17, "unit": "%"}, {"measurement": "inhibition at 1 µM", "setting": "YSK4", "value": 72, "unit": "%"}, {"measurement": "inhibition at 1 µM", "setting": "p38-beta", "value": 0, "unit": "%"}]}
